Measured values as given in ChEMBL document CHEMBL5584244, “Discovery of novel pyrrolo[2,1-c][1,4]benzodiazepine-3,11-dione (PBD) derivatives as selective HDAC6 inhibitors for the efficient treatment of idiopathic pulmonary fibrosis (IPF) in vitro and in vivo” (Eur J Med Chem, 2024).
Activity calls are given as the source filed them. The rule behind the calls is not given here.

Columns and labels:
[1] = biological target: Histone deacetylase 4 (Homo sapiens, UniProt P56524); assay: Inhibition of recombinant human HDAC4 using Boc-Lys (Ac)-AMC as substrate incubated for 120 mins by fluorescence analysis
[2] = Half life in human plasma at 2 uM by LC-MS/MS analysis; type: ADME, cell-free
[3] = system: Mus musculus; assay: Anti-pulmonary fibrosis activity in bleomycin-induced C57BL/6 mouse model of pulmonary fibrosis assessed as decrease in inflammatory cell infiltration in lung at 50 to 100 mg/kg, ip for 3 weeks by H and E staining based fluorescence microscopic analysis; type: functional, organism-based; details: dose 50-100 mg/kg
[4] = biological target: Mothers against decapentaplegic homolog 3 (Homo sapiens) (UniProt P84022); assay: Inhibition of TGF-beta1-induced Smad3 protein phosphorylation level in HELF cells incubated for 48 hrs by Western blot analysis; type: cell-based; details: dose 2.5-10 µM
[5] = Cytotoxicity against HELF cells assessed as reduction in viability at 1 to 300 uM after 48 hrs under without FBS condition by MTT assay; type: toxicity, cell-based; details: human, dose 1-300 µM
[6] = system: HELF; assay: Anti-pulmonary fibrosis activity against TGF-beta1-induced HELF cells assessed as reduction in COL1A1 protein expression incubated for 48 hrs by Western blot analysis; type: functional, cell-based; details: Homo sapiens, dose 2.5-10 µM
[7] = biological target: T1, Polyamine deacetylase HDAC10 (Homo sapiens, UniProt Q969S8); assay: Inhibition of N-terminal FLAG-tagged recombinant human HDAC10 (2 to 631 residues) expressed in baculovirus sf9 insect cells expression system using Boc-Lys (Ac)-AMC as substrate incubated for 120 mins by fluorescence analysis
T1 sequence (Q969S8 whole entry): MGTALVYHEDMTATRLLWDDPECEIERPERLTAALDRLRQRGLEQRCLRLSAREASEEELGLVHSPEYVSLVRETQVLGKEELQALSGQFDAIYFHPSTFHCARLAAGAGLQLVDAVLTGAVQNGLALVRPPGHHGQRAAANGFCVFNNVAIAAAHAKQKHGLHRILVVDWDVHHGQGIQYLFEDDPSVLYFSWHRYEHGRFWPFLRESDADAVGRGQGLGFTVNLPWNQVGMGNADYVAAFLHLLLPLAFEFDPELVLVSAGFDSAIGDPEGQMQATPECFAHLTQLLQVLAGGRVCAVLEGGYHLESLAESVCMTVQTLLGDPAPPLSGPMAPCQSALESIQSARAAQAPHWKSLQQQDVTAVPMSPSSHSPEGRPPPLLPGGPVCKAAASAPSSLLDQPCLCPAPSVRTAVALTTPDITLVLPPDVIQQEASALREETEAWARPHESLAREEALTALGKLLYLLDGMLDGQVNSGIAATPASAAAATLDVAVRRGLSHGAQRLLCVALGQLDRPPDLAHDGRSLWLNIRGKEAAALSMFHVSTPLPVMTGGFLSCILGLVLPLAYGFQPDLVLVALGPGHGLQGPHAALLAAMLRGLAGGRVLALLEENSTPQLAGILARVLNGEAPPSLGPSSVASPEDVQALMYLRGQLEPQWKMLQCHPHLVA

[8] = species on record: Homo sapiens; assay: Selectivity index, ratio IC50 for C-terminal His6/Flag-tagged recombinant human full length HDAC1 to IC50 for inhibition of recombinant human full length HDAC6
[9] = system: HELF; assay: Antifibrotic activity against TGF-beta1-induced HELF cells assessed as reduction in viability after 48 hrs by MTT assay; type: functional, cell-based; details: Homo sapiens, dose 2.5-10 µM
[10] = biological target: T2, Protein deacetylase HDAC6 (Homo sapiens) (UniProt Q9UBN7); assay: Inhibition of HDAC6 in TGF-beta1-induced HELF cells by fluorescence based microplate reader analysis; type: cell-based; details: dose 2.5-10 µM
T2 sequence (whole entry): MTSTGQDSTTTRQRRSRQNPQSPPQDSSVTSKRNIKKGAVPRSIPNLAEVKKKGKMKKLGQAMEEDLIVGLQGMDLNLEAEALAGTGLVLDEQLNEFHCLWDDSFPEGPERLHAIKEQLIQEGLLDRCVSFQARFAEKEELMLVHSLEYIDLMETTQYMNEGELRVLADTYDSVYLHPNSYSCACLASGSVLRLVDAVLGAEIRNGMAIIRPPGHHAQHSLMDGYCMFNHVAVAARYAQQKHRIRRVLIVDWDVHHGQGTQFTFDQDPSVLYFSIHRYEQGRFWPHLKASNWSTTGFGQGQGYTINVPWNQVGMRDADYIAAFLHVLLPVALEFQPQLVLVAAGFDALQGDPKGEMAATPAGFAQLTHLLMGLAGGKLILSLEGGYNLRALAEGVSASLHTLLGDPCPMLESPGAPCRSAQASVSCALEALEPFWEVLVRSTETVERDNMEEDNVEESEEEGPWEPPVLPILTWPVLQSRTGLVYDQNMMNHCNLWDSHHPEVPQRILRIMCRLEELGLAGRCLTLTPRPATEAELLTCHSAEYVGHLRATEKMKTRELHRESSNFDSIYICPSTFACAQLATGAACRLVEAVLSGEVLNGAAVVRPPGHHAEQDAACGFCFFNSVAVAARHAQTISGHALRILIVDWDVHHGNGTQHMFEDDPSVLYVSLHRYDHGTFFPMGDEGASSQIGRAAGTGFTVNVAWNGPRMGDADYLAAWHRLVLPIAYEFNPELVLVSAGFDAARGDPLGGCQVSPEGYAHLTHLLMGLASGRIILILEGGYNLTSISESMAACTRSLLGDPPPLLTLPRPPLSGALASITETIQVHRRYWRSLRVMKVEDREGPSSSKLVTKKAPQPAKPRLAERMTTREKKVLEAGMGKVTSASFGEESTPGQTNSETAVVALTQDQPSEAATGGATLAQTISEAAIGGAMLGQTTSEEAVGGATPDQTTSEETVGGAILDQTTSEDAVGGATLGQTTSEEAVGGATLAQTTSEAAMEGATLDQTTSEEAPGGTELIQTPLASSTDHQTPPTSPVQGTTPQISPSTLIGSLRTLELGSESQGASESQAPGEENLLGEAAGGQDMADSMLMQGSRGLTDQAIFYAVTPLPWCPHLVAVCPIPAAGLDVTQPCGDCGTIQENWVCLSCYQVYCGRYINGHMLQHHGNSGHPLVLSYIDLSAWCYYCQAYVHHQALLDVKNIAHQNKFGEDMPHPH

[11] = system: Mus musculus; assay: Anti-pulmonary fibrosis activity in bleomycin-induced C57BL/6 mouse model of pulmonary fibrosis assessed as decrease in fibrosis scars in lung at 50 to 100 mg/kg, ip for 3 weeks by H and E staining based fluorescence microscopic analysis; type: functional, organism-based; details: dose 50-100 mg/kg
[12] = system: Mus musculus; assay: Anti-pulmonary fibrosis activity in bleomycin-induced C57BL/6 mouse model of pulmonary fibrosis assessed as decrease in thickening of the alveolar wall in lung at 50 to 100 mg/kg, ip for 3 weeks by H and E staining based fluorescence microscopic analysis; type: functional, organism-based; details: dose 50-100 mg/kg

Mothers against decapentaplegic homolog 3 (Homo sapiens), sequence (P84022 2-425 limits assumed): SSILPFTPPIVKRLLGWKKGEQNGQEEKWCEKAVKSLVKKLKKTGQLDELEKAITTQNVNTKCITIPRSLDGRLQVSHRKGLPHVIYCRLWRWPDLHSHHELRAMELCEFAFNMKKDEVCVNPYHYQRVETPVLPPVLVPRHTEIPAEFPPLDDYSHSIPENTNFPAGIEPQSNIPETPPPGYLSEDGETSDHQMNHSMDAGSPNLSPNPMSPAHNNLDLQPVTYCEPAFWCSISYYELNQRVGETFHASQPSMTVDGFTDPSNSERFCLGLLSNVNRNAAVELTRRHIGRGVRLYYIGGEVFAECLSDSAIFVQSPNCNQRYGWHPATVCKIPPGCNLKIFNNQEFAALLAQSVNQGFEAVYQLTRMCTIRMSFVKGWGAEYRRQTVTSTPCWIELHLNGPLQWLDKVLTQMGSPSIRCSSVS
Histone deacetylase 4, sequence (P56524 whole entry): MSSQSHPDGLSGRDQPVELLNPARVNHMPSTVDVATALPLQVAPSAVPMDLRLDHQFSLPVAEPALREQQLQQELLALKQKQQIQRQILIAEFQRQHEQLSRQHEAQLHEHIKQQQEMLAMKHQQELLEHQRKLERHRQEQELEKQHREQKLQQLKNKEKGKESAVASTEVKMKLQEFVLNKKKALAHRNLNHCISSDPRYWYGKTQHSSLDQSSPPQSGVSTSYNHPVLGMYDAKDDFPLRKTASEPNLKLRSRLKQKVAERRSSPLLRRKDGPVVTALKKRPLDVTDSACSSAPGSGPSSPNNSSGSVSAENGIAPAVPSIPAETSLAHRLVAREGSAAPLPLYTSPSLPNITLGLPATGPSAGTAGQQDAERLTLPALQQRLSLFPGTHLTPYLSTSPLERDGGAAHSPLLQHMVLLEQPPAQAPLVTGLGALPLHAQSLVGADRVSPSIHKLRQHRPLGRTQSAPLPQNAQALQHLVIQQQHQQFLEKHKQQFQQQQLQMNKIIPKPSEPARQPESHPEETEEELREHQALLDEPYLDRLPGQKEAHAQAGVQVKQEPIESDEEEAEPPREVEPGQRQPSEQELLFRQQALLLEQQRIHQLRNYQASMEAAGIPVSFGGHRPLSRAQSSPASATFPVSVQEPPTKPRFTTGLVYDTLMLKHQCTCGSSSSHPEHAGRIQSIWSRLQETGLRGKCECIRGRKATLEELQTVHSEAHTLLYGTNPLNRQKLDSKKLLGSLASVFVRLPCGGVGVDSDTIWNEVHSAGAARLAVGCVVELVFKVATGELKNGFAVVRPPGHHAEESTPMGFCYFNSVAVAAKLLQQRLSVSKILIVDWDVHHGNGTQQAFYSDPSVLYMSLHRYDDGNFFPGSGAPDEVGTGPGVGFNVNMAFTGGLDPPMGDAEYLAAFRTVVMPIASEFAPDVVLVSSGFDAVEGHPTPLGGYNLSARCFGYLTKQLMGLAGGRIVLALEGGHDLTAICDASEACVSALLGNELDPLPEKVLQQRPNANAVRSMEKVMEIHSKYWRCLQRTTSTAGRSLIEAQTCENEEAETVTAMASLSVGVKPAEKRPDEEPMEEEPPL

## CC(=O)O.O=C(NO)c1ccc(CN2C(=O)[C@@H]3CCCN3Cc3ccccc32)cc1
[1]
  IC50: 847 nM
[2]
  half-life at 2 µM: > 4.82 h
[3]
  Activity: Active
[4]
  inhibition: Dose-Dependent Effect
[5]
  Activity: Toxic
[6]
  Activity: Dose-Dependent Effect
[7]
  IC50: 1320 nM
[8]
  Ratio IC50: 97.9
[9]
  Activity: Dose-Dependent Effect
[10]
  inhibition: Dose-Dependent Effect
[11]
  Activity: Active
[12]
  Activity: inactive
